Source: US20230063794A1, “STAPLED TRIAZOLE CO-AGONISTS OF THE GLUCAGON AND GLP-1 RECEPTORS” (Merck Sharp & Dohme LLC, priority 2019, published 2023)
Starred links: 1 amine or outer side, 2 acyl side, 3 side chain; linkers in the order of their positions; H or OH if unused. Positions of bridges follow the written chain, without caps; N, C: chain ends. Non-standard residues stand in square brackets, D forms with d. Residues, ends and D or L forms follow the SMILES beside them. Groups on a side chain read outwards from the residue. Triazole bridges read from a SMILES are 1,4-linked. *: point of attachment. Lys(N3) = [N-]=[N+]=NCCCC[C@H](N)C(=O)O; γGlu = O=C(O)[C@H](CCC(=O)[*:2])N[*:1]; Palmitoyl = CCCCCCCCCCCCCCCC(=O)*; dPra = C#CC[C@@H](N)C(=O)O; Nle = CCCC[C@H](N)C(=O)O; Aib = CC(C)(N)C(=O)O

Molecular target: T1, human GCGR (Homo sapiens, UniProt P47871)
T1 construct: expressed in transfected cells; grown under Blasticidin and Hygromycin selection
Experiment: cAMP activity assay in cells expressing human GCGR
Assay type: cell-based
Settings: ratio of human GCGR EC50 to human GLP1R EC50
Method: Activity of the peptides at the Glucagon receptor (GCGR) and GLP-1 receptor (GLP1R) was measured in a cAMP activity assay.
Peptides were dissolved in 100% DMSO and serially diluted to generate 10 point titrations. The peptide solutions were then transferred into 384-well assay plates (150 nL/well). Assay ready frozen cells expressing human GLP1R or human GCGR were suspended in growth media consisting of DMEM medium (GIBCO), 10% FBS (GIBCO), 1× NEAA(GIBCO), 1× P/S (GIBCO), 10 ug/ml Blasticidin (GIBCO) and 200 μg/mL Hygromycin (GIBCO). Cells were then diluted in assay buffer consisting of PBS (GIBCO), 7.5% BSA (Perkin Elmer), 100 μM RO 20-1724 (Sigma), with or without 20% human serum (MP Biomedical). The cell suspensions (15 μL) were then added to the assay plates containing the peptide solutions (30,000 cells/well for human GCGR; 10,000 cells/well for human GLP1R). The cells were incubated for 1 hour at room temperature in the dark. Production of cAMP was determined using HitHunter™ cAMPXS kits (DiscoverX) following manufacturer protocol. The plates were incubated for overnight at room temperature in the dark. Luminescence was measured using an EnVision Multilabel plate reader (Perkin Elmer). Native GLP-1 and Glucagon (Bachem) are used as control peptides. EC50 values were calculated using uses a 4 parameter logistic fit based on the Levenberg-Marquardt algorithm.

T1 sequence (P47871 26-477): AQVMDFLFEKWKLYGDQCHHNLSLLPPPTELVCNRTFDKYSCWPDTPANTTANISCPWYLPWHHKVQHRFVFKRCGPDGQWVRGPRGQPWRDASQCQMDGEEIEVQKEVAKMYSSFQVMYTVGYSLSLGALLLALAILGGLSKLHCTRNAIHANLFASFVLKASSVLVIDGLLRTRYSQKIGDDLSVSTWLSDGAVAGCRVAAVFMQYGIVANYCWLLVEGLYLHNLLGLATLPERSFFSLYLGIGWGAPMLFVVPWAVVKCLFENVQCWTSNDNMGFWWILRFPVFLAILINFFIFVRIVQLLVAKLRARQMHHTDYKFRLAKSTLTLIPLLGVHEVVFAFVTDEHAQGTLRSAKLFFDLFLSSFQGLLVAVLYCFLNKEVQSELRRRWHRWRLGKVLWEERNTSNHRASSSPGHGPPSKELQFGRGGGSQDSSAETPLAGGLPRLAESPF

`CCCCCCCCCCCCCCCC(=O)N[C@@H](CCC(=O)N[C@@H](CCC(=O)NCCCC[C@H](NC(=O)[C@H](CC(=O)O)NC(=O)[C@H](CO)NC(=O)[C@@H](NC(=O)[C@H](Cc1ccccc1)NC(=O)[C@@H](NC(=O)CNC(=O)[C@H](CCC(N)=O)NC(=O)[C@@H](CO)NC(=O)[C@@H](N)Cc1c[nH]cn1)[C@@H](C)O)[C@@H](C)O)C(=O)N[C@@H](CO)C(=O)N[C@@H](CCCCN)C(=O)N[C@@H](Cc1ccc(O)cc1)C(=O)N[C@@H](CC(C)C)C(=O)N[C@@H](CC(=O)O)C(=O)N[C@@H]1Cc2cn(nn2)CCCC[C@@H](C(=O)N[C@@H](CC(=O)O)C(=O)N[C@@H](Cc2ccccc2)C(=O)N[C@H](C(=O)N[C@@H](CCC(N)=O)C(=O)N[C@@H](Cc2c[nH]c3ccccc23)C(=O)N[C@@H](CC(C)C)C(=O)N[C@@H](CC(C)C)C(=O)N[C@@H](CC(=O)O)C(=O)N[C@H](C(N)=O)[C@@H](C)O)C(C)C)NC(=O)[C@H](C)NC(=O)[C@H](C)NC(=O)[C@H](CCCNC(=N)N)NC1=O)C(=O)O)C(=O)O` [compound 12] (H-H[dS]QGTFTSDK([γGlu-γGlu-Palmitoyl])SKYLD[dPra]RAA[Lys(N3)]DFVQWLLDT-NH2; triazole 16-20) was tested. Which “hGCGR/hGLP1R (hTone)” value did it give?
Its value is 0.8.

`CCCCCCCCCCCCCCCC(=O)N[C@@H](CCC(=O)N[C@@H](CCC(=O)NCCCC[C@H](NC(=O)[C@H](CC(=O)O)NC(=O)[C@H](CO)NC(=O)[C@@H](NC(=O)[C@H](Cc1ccccc1)NC(=O)[C@@H](NC(=O)CNC(=O)[C@H](CCC(N)=O)NC(=O)[C@@H](CO)NC(=O)[C@@H](N)Cc1c[nH]cn1)[C@@H](C)O)[C@@H](C)O)C(=O)N[C@@H](CO)C(=O)N[C@@H](CCCCN)C(=O)N[C@@H](Cc1ccc(O)cc1)C(=O)N[C@@H](CC(C)C)C(=O)N[C@@H](CC(=O)O)C(=O)N[C@@H](C)C(=O)N[C@@H](CCCNC(=N)N)C(=O)N[C@@H](C)C(=O)N[C@@H](C)C(=O)N[C@@H]1Cc2cn(nn2)CCCC[C@@H](C(=O)N[C@@H](Cc2c[nH]c3ccccc23)C(=O)N[C@@H](CC(C)C)C(=O)N[C@@H](CC(C)C)C(=O)N[C@@H](CC(=O)O)C(=O)N[C@H](C(N)=O)[C@@H](C)O)NC(=O)[C@H](C(C)C)NC(=O)[C@H](Cc2ccccc2)NC(=O)[C@H](CC(=O)O)NC1=O)C(=O)O)C(=O)O` [compound 13] (H-H[dS]QGTFTSDK([γGlu-γGlu-Palmitoyl])SKYLDARAA[dPra]DFV[Lys(N3)]WLLDT-NH2; triazole 20-24) was tested. Which “hGCGR/hGLP1R (hTone)” value did it give?
Its value is 0.4.

With `CCCCCCCCCCCCCCCC(=O)N[C@@H](CCC(=O)N[C@@H](CCC(=O)NCCCC[C@H](NC(=O)[C@H](CC(=O)O)NC(=O)[C@H](CO)NC(=O)[C@@H](NC(=O)[C@H](Cc1ccccc1)NC(=O)[C@@H](NC(=O)CNC(=O)[C@H](CCC(N)=O)NC(=O)[C@@H](CO)NC(=O)[C@@H](N)Cc1c[nH]cn1)[C@@H](C)O)[C@@H](C)O)C(=O)N[C@@H](CO)C(=O)N[C@@H](CCCCN)C(=O)N[C@@H](Cc1ccc(O)cc1)C(=O)N[C@@H](CC(C)C)C(=O)N[C@@H](CC(=O)O)C(=O)N[C@@H](C)C(=O)N[C@@H]1Cc2cn(nn2)CCCC[C@@H](C(=O)N[C@@H](Cc2ccccc2)C(=O)N[C@H](C(=O)N[C@@H](CCC(N)=O)C(=O)N[C@@H](Cc2c[nH]c3ccccc23)C(=O)N[C@@H](CC(C)C)C(=O)N[C@@H](CC(C)C)C(=O)N[C@@H](CC(=O)O)C(=O)N[C@H](C(N)=O)[C@@H](C)O)C(C)C)NC(=O)[C@H](CCC(N)=O)NC(=O)[C@H](C)NC(=O)[C@H](C)NC1=O)C(=O)O)C(=O)O` [compound 14] (H-H[dS]QGTFTSDK([γGlu-γGlu-Palmitoyl])SKYLDA[dPra]AAQ[Lys(N3)]FVQWLLDT-NH2; triazole 17-21) as the compound, how does the “hGCGR/hGLP1R (hTone)” value read?
The value was 0.5.

`CCCCCCCCCCCCCCCC(=O)N[C@@H](CCC(=O)N[C@@H](CCC(=O)NCCCC[C@H](NC(=O)[C@H](CC(=O)O)NC(=O)[C@H](CO)NC(=O)[C@@H](NC(=O)[C@H](Cc1ccccc1)NC(=O)[C@@H](NC(=O)CNC(=O)[C@H](CCC(N)=O)NC(=O)[C@@H](CO)NC(=O)[C@@H](N)Cc1c[nH]cn1)[C@@H](C)O)[C@@H](C)O)C(=O)N[C@@H](CO)C(=O)N[C@@H](CCCCN)C(=O)N[C@@H](Cc1ccc(O)cc1)C(=O)N[C@@H](CC(C)C)C(=O)N[C@@H](CC(=O)O)C(=O)N[C@@H](C)C(=O)N[C@@H](CCCNC(=N)N)C(=O)N[C@@H](C)C(=O)N[C@@H](C)C(=O)N[C@@H](CCC(N)=O)C(=O)N[C@@H](CC(=O)O)C(=O)N[C@@H](Cc1ccccc1)C(=O)N[C@H](C(=O)N[C@@H]1Cc2cn(nn2)CCCC[C@@H](C(=O)N[C@H](C(N)=O)[C@@H](C)O)NC(=O)[C@H](CC(C)C)NC(=O)[C@H](CC(C)C)NC(=O)[C@H](Cc2c[nH]c3ccccc23)NC1=O)C(C)C)C(=O)O)C(=O)O` [compound 15] (H-H[dS]QGTFTSDK([γGlu-γGlu-Palmitoyl])SKYLDARAAQDFV[dPra]WLL[Lys(N3)]T-NH2; triazole 24-28) was tested. Which “hGCGR/hGLP1R (hTone)” value did it give?
The value was 0.72.

How did the “hGCGR/hGLP1R (hTone)” value turn out when `CCCCCCCCCCCCCCCC(=O)N[C@@H](CCC(=O)N[C@@H](CCC(=O)NCCCC[C@H](NC(=O)[C@H](CC(=O)O)NC(=O)[C@H](CO)NC(=O)[C@@H](NC(=O)[C@H](Cc1ccccc1)NC(=O)[C@@H](NC(=O)CNC(=O)[C@H](CCC(N)=O)NC(=O)C(C)(C)NC(=O)[C@@H](N)Cc1c[nH]cn1)[C@@H](C)O)[C@@H](C)O)C(=O)N[C@@H](CO)C(=O)N[C@@H](CCCCN)C(=O)N[C@@H](Cc1ccc(O)cc1)C(=O)N[C@@H](CC(C)C)C(=O)N[C@@H](CC(=O)O)C(=O)NC(C)(C)C(=O)N[C@@H](CCCNC(=N)N)C(=O)N[C@@H](C)C(=O)N[C@@H](C)C(=O)N[C@@H]1Cc2cn(nn2)CCCC[C@@H](C(=O)N[C@@H](Cc2c[nH]c3ccccc23)C(=O)N[C@@H](CC(C)C)C(=O)N[C@@H](CCCC)C(=O)N[C@@H](CC(=O)O)C(=O)N[C@H](C(N)=O)[C@@H](C)O)NC(=O)[C@H](C(C)C)NC(=O)[C@H](Cc2ccccc2)NC(=O)[C@H](CC(=O)O)NC1=O)C(=O)O)C(=O)O` [compound 17] (H-H[Aib]QGTFTSDK([γGlu-γGlu-Palmitoyl])SKYLD[Aib]RAA[dPra]DFV[Lys(N3)]WL[Nle]DT-NH2; triazole 20-24) was run?
Its value is 2.25.

With `CCCCCCCCCCCCCCCC(=O)N[C@@H](CCC(=O)N[C@@H](CCC(=O)NCCCC[C@H](NC(=O)[C@H](CC(=O)O)NC(=O)[C@H](CO)NC(=O)[C@@H](NC(=O)[C@H](Cc1ccccc1)NC(=O)[C@@H](NC(=O)CNC(=O)[C@H](CCC(N)=O)NC(=O)C(C)(C)NC(=O)[C@@H](N)Cc1c[nH]cn1)[C@@H](C)O)[C@@H](C)O)C(=O)N[C@@H](CO)C(=O)N[C@@H](CCCCN)C(=O)N[C@@H](Cc1ccc(O)cc1)C(=O)N[C@@H](CC(C)C)C(=O)N[C@@H](CC(=O)O)C(=O)NC(C)(C)C(=O)N[C@@H]1Cc2cn(nn2)CCCC[C@@H](C(=O)N[C@@H](Cc2ccccc2)C(=O)N[C@H](C(=O)N[C@@H](CCC(N)=O)C(=O)N[C@@H](Cc2c[nH]c3ccccc23)C(=O)N[C@@H](CC(C)C)C(=O)N[C@@H](CCCC)C(=O)N[C@@H](CC(=O)O)C(=O)N[C@H](C(N)=O)[C@@H](C)O)C(C)C)NC(=O)[C@H](CCC(N)=O)NC(=O)[C@H](C)NC(=O)[C@H](C)NC1=O)C(=O)O)C(=O)O` [compound 18] (H-H[Aib]QGTFTSDK([γGlu-γGlu-Palmitoyl])SKYLD[Aib][dPra]AAQ[Lys(N3)]FVQWL[Nle]DT-NH2; triazole 17-21) as the compound, how does the “hGCGR/hGLP1R (hTone)” value read?
The value was 1.96.

`CCCCCCCCCCCCCCCC(=O)N[C@@H](CCC(=O)N[C@@H](CCC(=O)NCCCC[C@H](NC(=O)[C@H](CC(=O)O)NC(=O)[C@H](CO)NC(=O)[C@@H](NC(=O)[C@H](Cc1ccccc1)NC(=O)[C@@H](NC(=O)CNC(=O)[C@H](CCC(N)=O)NC(=O)C(C)(C)NC(=O)[C@@H](N)Cc1c[nH]cn1)[C@@H](C)O)[C@@H](C)O)C(=O)N[C@@H](CO)C(=O)N[C@@H](CCCCN)C(=O)N[C@@H](Cc1ccc(O)cc1)C(=O)N[C@@H](CC(C)C)C(=O)N[C@@H](CC(=O)O)C(=O)NC(C)(C)C(=O)N[C@@H](CCCNC(=N)N)C(=O)N[C@@H](C)C(=O)N[C@@H](C)C(=O)N[C@@H](CCC(N)=O)C(=O)N[C@@H](CC(=O)O)C(=O)N[C@@H](Cc1ccccc1)C(=O)N[C@H](C(=O)N[C@@H]1Cc2cn(nn2)CCCC[C@@H](C(=O)N[C@H](C(N)=O)[C@@H](C)O)NC(=O)[C@H](CCCC)NC(=O)[C@H](CC(C)C)NC(=O)[C@H](Cc2c[nH]c3ccccc23)NC1=O)C(C)C)C(=O)O)C(=O)O` [compound 19] was tested. Which “hGCGR/hGLP1R (hTone)” value did it give?
Its value is 0.99.
